Test results as given in US20040157740A1, “Heterocyclyl phenyl benzyl ethers used as fungicides” (priority 2001, published 2004).

Test: logP determination by HPLC (EEC Directive 79/831 Annexe V. A8, gradient method)
Assay type: physicochemical
Conditions: pH 2; read-out: log P (pH 2)

| chromatographic logP | Structure (SMILES) |
| --- | --- |
| 1.75 | Cc1cc(-c2nnnn2C(F)F)ccc1O [Example III-8] |
| 2.18 | Cc1cc(-c2nnn(C(F)F)n2)ccc1O [Example III-7] |
| 2.08 | CCc1nc(-c2ccc(O)c(C)c2)no1 [Example III-2, 5-ethyl-3-(3-methyl-4-hydroxyphenyl)-1,2,4-oxadiazole] |
| 1.41 | C#CCn1nnnc1-c1ccc(O)c(C)c1 [Example III-6] |
| 2.75 | C#CCn1nnc(-c2ccc(OC)c(C)c2)n1 [Example V-44] |
| 3.1 | Cc1cc(-c2nc(C(F)(F)F)ns2)ccc1O [Example III-3, 3-trifluoromethyl-5-(3-methyl-4-hydroxyphenyl)-1,2,4-thiadiazole] |
| 4.08 | CNC(=O)/C(=N/OC)c1ccccc1COc1ccc(-c2nc(C(F)(F)F)ns2)cc1C [Example 6, N-methyl-2-[4-(3-trifluoromethyl-1,2,4-thiadiazol-5-yl)-2-methylphenoxy]methylphenylglyoxylamide O-methyl oxime] |
| 2.58 | CNC(=O)/C(=N/OC)c1ccccc1COc1ccc(-c2nnn(C)n2)cc1C [Example 2, N-methyl-2-[4-(2-methyltetrazol-5-yl)-2-methylphenoxy]methylphenylglyoxylamide O-methyl oxime] |
| 5.78 | Cc1cc(-c2nc(C(F)(F)F)ns2)ccc1OCc1ccc(Cl)cc1 [Example V-9, 3-trifluoromethyl-5-[3-methyl-4-(4-chlorobenzyloxy)phenyl]-1,2,4-thiadiazole] |
| 3.24 | COc1ccc(-c2nnn(C(F)F)n2)cc1C [Example V-6] |
| 3.24 | CCc1nc(-c2ccc(OCc3ccccc3/C(=N\OC)C(=O)NC)c(C)c2)no1 [Example 4, N-methyl-2-[4-(5-ethyl-1,2,4-oxadiazol-3-yl)-2-methylphenoxy]methylphenylglyoxylamide O-methyl oxime] |
| 4.62 | CO/N=C(/C(=O)OC)c1ccccc1COc1ccc(-c2nc(C(F)(F)F)ns2)cc1C [Example 5, methyl 2-[4-(3-trifluoromethyl-1,2,4-thiadiazol-5-yl)-2-methylphenoxy]methylphenylglyoxylate O-methyl oxime] |
| 3.78 | COc1ccc(-c2nnn(C(C)(C)C)n2)cc1C [Example V-3] |
| 0.36 | COc1ccc(/C(N)=N/O)cc1C [Example VII-I, 3-methyl-4-methoxybenzamideoxime] |
| 3.8 | CCc1nc(-c2ccc(OCc3ccccc3/C(=N\OC)C(=O)OC)c(C)c2)no1 [Example 3, methyl 2-[4-(5-ethyl-1,2,4-oxadiazol-3-yl)-2-methylphenoxy]methylphenylglyoxylate O-methyl oxime] |
| 2.38 | COc1ccc(-c2nnn(C)n2)cc1C [Example V-2, 2-methyl-5-(3-methyl-4-methoxyphenyl)tetrazole] |
| 1.81 | C#CCn1nnc(-c2ccc(O)c(C)c2)n1 [Example III-5] |
| 2.51 | COc1ccc(-c2nnnn2C(F)F)cc1C [Example V-7] |
| 1.04 | Cc1cc(-c2nnnn2C)ccc1O [1-methyl-5-(3-methyl-4-hydroxyphenyl)tetrazole] |
| 1.45 | Cc1cc(-c2nnn(C)n2)ccc1O [Example III-1, 2-methyl-5-(3-methyl-4-hydroxyphenyl)tetrazole] |
| 2.12 | C#CCn1nnnc1-c1ccc(OC)c(C)c1 [Example V-5] |
| 2.54 | Cc1cc(-c2nnn(C(C)(C)C)n2)ccc1O [Example III-4] |
| 3.08 | CO/N=C(/C(=O)OC)c1ccccc1COc1ccc(-c2nnn(C)n2)cc1C [Example 1, methyl 2-[4-(2-methyltetrazol-5-yl)-2-methylphenoxy]methylphenylglyoxylate O-methyl oxime] |
| 1.51 | COc1ccc(-c2nn[nH]n2)cc1C [Example V-1, 5-(3-methyl-4-methoxyphenyl)tetrazole] |
| 3.19 | CCc1nc(-c2ccc(OC)c(C)c2)no1 [Example V-8] |
